Data on six compounds can be found in patent US10946019B2, “Nurr1:RXR activating compounds for simultaneous treatment of symptoms and pathology of Parkinson's disease” (priority 2015, dated 2021).

Data set [1] has as its target Nur77:RXRα heterodimers (Homo sapiens (Human), UniProt P19793). The data set is described as follows: Relative activation of Nurr1 and Nur77 in a luciferase reporter assay. Type of data set: cell-based. To be noted: FIG. 67.
Data set [2] in a line: Plasma and brain concentrations by LC-MS/MS after IP administration to mice. Type of data set: in vivo, mouse. On the procedure:
FIGS. 68A and 68B show the pharmacokinetic profile of XCT in blood plasma and in the brain of mice injected with this compound. […] Serial tail bleeds (n=3) were used for detection of the compound in plasma 1 and 2 hours after IP administration. Similarly, mice (n=3) were sacrificed 1 and 2 hours after IP administration and brains were dissected. The concentrations of the parent compound in plasma and brain were determined by LC-MS/MS.
The concentrations of the parent compound in plasma and brain were determined by LC/MSMS.
XCT0135908 was administered to mice to test its bioactivity.

Data set [3] concerns tyrosine hydroxylase (TH). The data set can be described thus: Midbrain tyrosine hydroxylase expression by qPCR after administration to mice. Type of data set: in vivo, mouse. To be noted: mice, IP or intracerebroventricular 1 and 10 mg/kg, different time points. The procedure:
(§1) To assess the neuroprotective effect of compound 3, this compound was dosed to wt mice intraperitoneally (IP) at 10 mg/kg injections of compound 3 in Ethanol:PG:Saline 10:30:60. After 2 h and 4 h animals (n=3 per time point) were sacrificed, and their brains obtained. After extraction c-jun and tyrosine hydroxylase (TH) levels in brain extract were determined by qPCR (FIG. 1E, 1F).
Given the role of Nurr1:RXRα activation in the transcriptional regulation of DA biosynthesis genes, we tested whether compound 3 could increase DA levels in wt and ASYN transgenic mice (Tofaris et al. J. Neurosci. 26:3942-3950, 2006), which display reduced striatal DA levels after reaching adulthood. […] Aiming to model PD based on human genetic data, we also tested whether compound 3 could increase DA levels in ASYN transgenic mice. A single IP injection of compound 3 (10 mg/kg) was able increase striatal DA (t test p=0.01069) and DA metabolite levels in ASYN transgenics as well (FIG. 75C) in comparison to mice receiving vehicle.

Data set [4] has as its system c-jun. The data set is described as follows: Midbrain c-jun expression by qPCR after administration to mice. Type of data set: in vivo, mouse. On the procedure: FIGS. 69A-69C show the brain penetration, half-life, and c-jun transcriptional activation of compound 3. […] Mice (n=5) were sacrificed 1, 2, 4, 8 and 24 hours after IP administration and brains were dissected 1, 2, 4, 8 and 24 hours post administration. The concentrations of the parent compound in plasma and brain were determined by LC/MSMS.
as §1

The target in data set [5] is Nurr1:RXRα heterodimer (Homo sapiens (Human), UniProt P19793). The data set is described as follows: Nurr1:RXRα-dependent luciferase reporter (DR5-TK-Luc) transactivation assay. The data set is classed as cell-based. To be noted: SHSY-5Y cells co-transfected with human Nurr1, RXRα and DR5-TK-Luc.
Chain of Nurr1:RXRα heterodimer (P19793 whole entry): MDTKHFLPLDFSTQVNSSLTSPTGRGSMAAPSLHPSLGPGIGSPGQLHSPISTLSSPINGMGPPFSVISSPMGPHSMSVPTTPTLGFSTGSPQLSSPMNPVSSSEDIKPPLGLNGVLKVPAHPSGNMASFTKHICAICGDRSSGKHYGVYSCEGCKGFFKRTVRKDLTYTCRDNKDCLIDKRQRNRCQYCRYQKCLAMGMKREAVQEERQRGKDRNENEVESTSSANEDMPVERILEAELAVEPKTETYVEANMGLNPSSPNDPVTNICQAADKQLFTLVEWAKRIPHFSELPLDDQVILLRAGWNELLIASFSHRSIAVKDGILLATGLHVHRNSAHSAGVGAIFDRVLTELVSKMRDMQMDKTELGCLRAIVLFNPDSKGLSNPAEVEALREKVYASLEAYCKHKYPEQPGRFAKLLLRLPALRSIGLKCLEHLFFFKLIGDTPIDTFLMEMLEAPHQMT
Chain of Nurr1:RXRα heterodimer (P43354 whole entry partner): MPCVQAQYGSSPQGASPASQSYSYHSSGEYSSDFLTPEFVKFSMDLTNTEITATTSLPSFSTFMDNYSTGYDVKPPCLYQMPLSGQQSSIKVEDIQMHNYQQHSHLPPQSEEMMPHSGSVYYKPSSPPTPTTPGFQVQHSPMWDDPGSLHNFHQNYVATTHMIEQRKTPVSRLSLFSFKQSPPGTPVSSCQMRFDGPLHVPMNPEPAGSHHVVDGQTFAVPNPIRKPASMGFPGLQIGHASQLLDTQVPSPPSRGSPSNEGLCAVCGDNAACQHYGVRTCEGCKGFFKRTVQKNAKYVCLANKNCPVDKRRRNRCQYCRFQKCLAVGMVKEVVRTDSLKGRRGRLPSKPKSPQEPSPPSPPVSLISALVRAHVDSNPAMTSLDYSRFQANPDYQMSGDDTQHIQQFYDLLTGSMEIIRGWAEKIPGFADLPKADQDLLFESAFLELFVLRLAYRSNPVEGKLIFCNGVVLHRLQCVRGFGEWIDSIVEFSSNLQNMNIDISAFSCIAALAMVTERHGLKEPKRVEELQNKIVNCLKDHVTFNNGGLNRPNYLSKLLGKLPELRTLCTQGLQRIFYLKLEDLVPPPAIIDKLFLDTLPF
Protocol: The in vitro transactivation assay determined the capacity of the compounds of the invention to activate the Nurr1:RXR heterodimers. Naive SHSY-5Y cells were transiently co-transfected, using Lipofectamine 2000 (Invitrogen), with a plasmid expressing the human receptor Nurr1, a plasmid expressing the RXR human receptor (RXRα or RXRγ receptor) and a reporter plasmid DR5-TK-Luc. […] After incubation overnight, the expression of luciferase was measured (FIG. 1A).
The subject of data set [6] is SHSY-5Y dopaminergic cells. The data set is described as follows: MPP+ induced cell death, MTT assay. The following applies: 12.5 μM, varying concentrations of MPP+. Type of data set: cell-based, human. The procedure:
MPP+, eradicates approximately 75% of the cells in 24 hours. […] Naive Neuro2A cells (FIG. 2A) or SH-SY5Y neuroblastoma cells FIG. 2B,C) were cultured in RPMI 1640, 10% fetal bovine serum at 37° C. Cells were pretreated with compound 3 for 12-24 h. Subsequent change of culture medium with addition of 0, 1, 2 and 4 mM MPP+ induced cell death. MTT assays determined the relative number of surviving cells FIG. 2D).
Such assays were performed, for instance, by adding compound 46 (12.5 μM) to human origin SHSY-5Y dopaminergic cells in which death was induced by the mitochondria complex I inhibitor MPP+ (1-methyl-4-phenylpyridinium), the active metabolite of MPTP (1-methyl-4-phenyl-1,2,3,6-tetrahydropyridine). […] Most of the MPP+-treated cells receiving vehicle died, while the few surviving cells remained attached to the plate but were rounded and had lost all projections. These morphological changes indicated impaired neuronal function. On the contrary, cells treated with compound 46 appeared healthy, flattened, well-attached, and their projections remained intact.
We examined the neuroprotective capability of Nurr1:RXRα heterodimer activation in SHSY-5Y cells where death was induced by either the oxidative stress related H2O2 or the mitochondria complex I inhibitor MPP+ (1-methyl-4-phenylpyridinium) (FIG. 72B). […] The protection conferred by compound 3 was Nurr1-dependent, since it was abrogated by knocking-down endogenous Nurr1 mRNA (FIGS. 1E and 72D). The neuroprotective effects of compound 3 extend to damage induced by the PD-associated mutation G2019S in the Leucine-Rich Repeat Kinase 2 (LRRK2) gene, the most common genetic defect associated with clinical PD (Tofaris et al. J. Neurosci. 26:3942-3950, 2006). Rat cortical neurons, co-transfected with CMV-GFP for identification, and CMVLRRK2-G2019S cDNAs show increased apoptosis as assessed by DAPI staining, compared to control neurons co-transfected with a LRRK2 wt cDNA.

Chain of Nur77:RXRα heterodimers (P19793 whole entry, looked up): as the sequence (P19793 whole entry) above
Chain of Nur77:RXRα heterodimers (P22736 whole entry partner, looked up): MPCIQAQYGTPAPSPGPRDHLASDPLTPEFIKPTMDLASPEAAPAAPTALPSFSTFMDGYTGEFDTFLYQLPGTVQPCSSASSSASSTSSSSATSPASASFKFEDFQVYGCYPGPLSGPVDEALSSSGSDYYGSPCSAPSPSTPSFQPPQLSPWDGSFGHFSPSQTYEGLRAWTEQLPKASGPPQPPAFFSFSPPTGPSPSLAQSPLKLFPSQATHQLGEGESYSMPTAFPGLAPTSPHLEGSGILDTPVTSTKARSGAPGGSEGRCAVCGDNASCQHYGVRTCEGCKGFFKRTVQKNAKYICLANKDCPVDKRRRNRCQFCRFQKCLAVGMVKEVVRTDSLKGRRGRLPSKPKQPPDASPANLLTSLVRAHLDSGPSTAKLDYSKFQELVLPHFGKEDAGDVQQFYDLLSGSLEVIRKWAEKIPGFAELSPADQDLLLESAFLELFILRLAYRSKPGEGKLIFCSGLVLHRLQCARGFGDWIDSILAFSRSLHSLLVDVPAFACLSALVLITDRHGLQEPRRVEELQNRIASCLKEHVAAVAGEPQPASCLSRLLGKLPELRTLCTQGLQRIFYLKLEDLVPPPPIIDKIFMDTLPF

As for `C=CCc1c(C)nc(-c2ccccc2)nc1Nc1ccc(C(=O)O)cc1` [XCT0135908, reference compound], the “relative activation of Nur77:RXRα vs Nurr1:RXRα heterodimers” value in data set [1] is “preferentially activates Nur77:RXRα heterodimers and not Nurr1:RXRα heterodimers”. Moreover, in data set [2] (mice, 1 and 2 hours after IP, plasma and brain homogenates), the “compound stability in vivo” value was “low compound stability”. Also, the brain penetration entry in data set [2] (mice, IP administration) is “minimal brain penetration”. The Kp in data set [2] (mouse, brain homogenate / blood plasma, mice, 1 and 2 hours after IP XCT (printed 1 μg/kg), LC-MS/MS) is < 0.03. Further, the “midbrain TH expression” value in data set [3] is “did not result in any expression alterations”. The midbrain c-jun expression result in data set [4] (IP or intracerebroventricular 1 and 10 mg/kg, different time points) is “did not result in any expression alterations”.

In the case of `Cc1nc(-c2ccccc2)nc2c1cc(C)n2-c1ccc(C(=O)O)cc1Br` [Example 46, 3-bromo-4-(4,6-dimethyl-2-phenyl-7H-pyrrolo[2,3-d]pyrimidin-7-yl)benzoic acid], in data set [2] (mouse, in vivo, ip), the bioavailability result is given as “highly bioavailable” and the brain penetration entry was “capable of crossing the blood brain barrier”. The compound also returned an EC50 in data set [5] of 0.7 µM. In addition, the “c-jun transcriptional activation in the midbrain” value in data set [4] (IP compound 46, qPCR 2 hours after administration) is given as “significant c-jun transcriptional activation”. In addition, the “cell survival against MPP+” value in data set [6] is given as “significantly increased the survival of cells”.

`Cc1nc(-c2ccccc2)nc2c1cc(C)n2-c1ccc(C(=O)O)cc1` [Example 45, 4-(4,6-dimethyl-2-phenyl-7H-pyrrolo[2,3-d]pyrimidin-7-yl)benzoic acid] yielded an EC50 in data set [5] of 2.5 µM.

Compound `C=CCc1c(C)nc(-c2ccccc2)nc1Nc1ccc(C(=O)OCCCOc2ccc(C[C@H](N)C(=O)O)cc2)cc1` [Example 32, (S)-2-(4-(3-(4-(5-allyl-6-methyl-2-phenylpyrimidin-4-ylamino)benzoyloxy)propoxy)phenyl)-1-carboxyethanaminium chloride] had a 50% effective concentration (EC50) in data set [5] of 5 µM.

`C=CCc1c(C)nc(-c2ccccc2)nc1Nc1ccc(C(=O)OCOC(=O)C(C)(C)C)cc1` [Example 30, pivaloyloxymethyl 4-(5-allyl-6-methyl-2-phenylpyrimidin-4-ylamino)benzoate] showed a 50% effective concentration (EC50) in data set [5] of 2 µM.

`C=CCc1c(C)nc(-c2ccccc2)nc1Nc1ccc(C(=O)Oc2ccc(C[C@H](N)C(=O)O)cc2)cc1` [Example 31, (S)-2-(4-(4-(5-allyl-6-methyl-2-phenylpyrimidin-4-ylamino)benzoyloxy)phenyl)-1-carboxyethanaminium chloride] came in with an EC50 in data set [5] of 10 µM.
